Test results reported in patent US20250144067A1, “PERSONALIZED STARVATION THERAPY FOR CANCER” (Faeth Therapeutics, Inc., priority 2021, published 2025).
Structures can show the parent of a compound that is named as a salt. Where two headings read alike, the source gives them in different places.

Experiments:
[1] = system: NCI-H292 lung cancer cells; assay: FDA drug screening, complete media vs cholesterol-free media without statin (TABLE 1); assay type: cell-based, human
[2] = system: NCI-H292 lung cancer cells; assay: FDA drug screening, complete media vs cholesterol-free media with simvastatin (TABLE 2); assay type: cell-based, human
[3] = Complete minus Cholesterol-free, greater than 0 enhanced anti-cancer activity, about 0 neutral, below 0 antagonist
[4] = NCI-H292 cells, FDA drug library screen, cholesterol-free media without statin
[5] = NCI-H292 cells, FDA drug library screen, complete media
[6] = NCI-H292 cells, FDA drug library screen, cholesterol-free media with simvastatin 0.04 μM
[7] = complete media vs cholesterol-free media + simvastatin (0.04 μM), >0 enhanced anti-cancer activity, about 0 neutral, <0 antagonist
[8] = Complete minus Cholesterol-free, >0 enhanced anti-cancer activity, about 0 neutral, <0 antagonist
[9] = NCI-H292 cells, cholesterol-free media without statin
[10] = NCI-H292 cells, cholesterol-free media with simvastatin 0.04 μM, cell growth value in FDA drug screen
[11] = NCI-H292 cells, complete media, cell growth value in FDA drug screen
[12] = complete media minus cholesterol-free media + simvastatin, >0 enhanced anti-cancer activity, about 0 neutral, <0 antagonist
[13] = Complete minus Cholesterol-free, greater than 0 enhanced anti-cancer activity, about 0 neutral, below 0 antagonists
[14] = NCI-H292 cells in cholesterol-free media without statin
[15] = NCI-H292 cells in complete media
[16] = NCI-H292 cells, FDA library drug in cholesterol-free media with simvastatin 0.04 μM
[17] = NCI-H292 cells, FDA library drug in complete media
[18] = NCI-H292 cells, drug in cholesterol-free media with simvastatin 0.04 μM
[19] = NCI-H292 cells, drug in complete media
[20] = NCI-H292 cells, cholesterol-free media without statin, FDA drug library screen
[21] = NCI-H292 cells, complete media, FDA drug library screen
[22] = complete vs cholesterol-free media, >0 enhanced anti-cancer activity, about 0 neutral, <0 antagonist
[23] = NCI-H292 cells, cholesterol-free media with simvastatin 0.04 μM, FDA drug library screen (TABLE 2)
[24] = NCI-H292 cells, complete media, FDA drug library screen (TABLE 2)
[25] = complete media minus cholesterol-free media + simvastatin (0.04 μM), >0 enhanced anti-cancer activity, about 0 neutral, <0 antagonist
[26] = Complete minus Cholesterol-free, […]
[27] = complete media vs cholesterol-free media + simvastatin (0.04 μM), […]
[28] = complete vs cholesterol-free media, greater than 0 enhanced anti-cancer activity, about 0 neutral, below 0 antagonists

CS(=O)(=O)c1ccc([C@@H](O)[C@@H](CF)NC(=O)C(Cl)Cl)cc1 [Florfenicol]
Difference [1, 3]: −0.13
Cholesterol-free [1, 4]: 0.8542
Complete [1, 5]: 0.7262
Cholesterol-free media + simvastatin (0.04 μM) [2, 6]: 1.137
Complete Media [2, 5]: 0.997
Difference [2, 7]: −0.14

Cc1ncc(C[n+]2csc(CCO)c2C)c(N)n1 [Thiamine (hydrochloride)]
Difference [1, 8]: −0.20
Cholesterol-free [1, 9]: 1.324
Complete ([1]; NCI-H292 cells, complete media): 1.125
Cholesterol-free media + simvastatin (0.04 μM) [2, 10]: 1.098
Complete Media [2, 11]: 1.117
Difference [2, 12]: 0.02

COc1ccc2c(c1)C(=O)N(CCc1ccc(S(=O)(=O)NC(=O)NC3CCCCC3)cc1)C(=O)C2(C)C [Gliquidone]
Difference [1, 13]: −0.68
Cholesterol-free [1, 14]: 1.724
Complete [1, 15]: 1.039
Cholesterol-free media + simvastatin (0.04 μM) [2, 16]: 1.335
Complete Media [2, 17]: 1.002
Difference [2, 7]: −0.33

O=C(NC1CCN(CCCCC2(C(=O)NCC(F)(F)F)c3ccccc3-c3ccccc32)CC1)c1ccccc1-c1ccc(C(F)(F)F)cc1 [Lomitapide]
Difference [1, 8]: −0.25
Cholesterol-free [1, 9]: 0.9551
Complete ([1]; NCI-H292 cells, complete media): 0.7097
Cholesterol-free media + simvastatin (0.04 μM) [2, 18]: 1.325
Complete Media [2, 19]: 1.07
Difference [2, 7]: −0.25

NC[C@H]1O[C@H](O[C@H]2[C@H](O)[C@@H](O[C@H]3O[C@H](CO)[C@@H](O)[C@H](N)[C@H]3O)[C@H](N)C[C@@H]2N)[C@H](N)[C@@H](O)[C@@H]1O [Bekanamycin]
Cholesterol-free [1, 20]: 0.873
Complete [1, 21]: 1.446
Difference [1, 22]: 0.57
Cholesterol-free media + simvastatin (0.04 μM) [2, 18]: 1.456
Complete Media [2, 19]: 1.293
Difference [2, 7]: −0.16

C=C[C@H]1C[N@@]2CC[C@H]1C[C@@H]2[C@@H](O)c1ccnc2ccc(OC)cc12 [Quinidine hydrochloride monohydrate]
Difference [1, 8]: 0.01
Cholesterol-free [1, 20]: 1.211
Complete [1, 21]: 1.222
Cholesterol-free media + simvastatin (0.04 μM) [2, 23]: 1.46
Complete Media [2, 24]: 1.402
Difference [2, 25]: −0.06

CCCCOCCOCCOCc1cc2c(cc1CCC)OCO2 [Piperonyl butoxide]
Difference [1, 8]: −0.29
Cholesterol-free [1, 9]: 1.491
Complete ([1]; NCI-H292 cells, complete media): 1.202
Cholesterol-free media + simvastatin (0.04 μM) [2, 23]: 1.206
Complete Media [2, 24]: 1.18
Difference [2, 25]: −0.03

CN(C)CCCN1c2ccccc2Sc2ccccc21 [Promazine (hydrochloride)]
Difference [1, 3]: −0.18
Cholesterol-free [1, 4]: 1.243
Complete [1, 5]: 1.064
Cholesterol-free media + simvastatin (0.04 μM) [2, 6]: 0.8407
Complete Media [2, 5]: 0.9785
Difference [2, 12]: 0.14

O=C(Nc1ccc(O)cc1)c1ccccc1O [Osalmid]
Cholesterol-free [1, 20]: 1.209
Complete [1, 21]: 1.432
Difference [1, 22]: 0.22
Cholesterol-free media + simvastatin (0.04 μM) [2, 23]: 0.9033
Complete Media [2, 24]: 0.8951
Difference [2, 25]: −0.01

Ketotifen (fumarate)
Difference [1, 26]: −0.71
Cholesterol-free [1, 14]: 1.545
Complete [1, 15]: 0.8394
Cholesterol-free media + simvastatin (0.04 μM) [2, 16]: 1.876
Complete Media [2, 17]: 1.552
Difference [2, 27]: −0.32

C[C@H]1C[C@H]2[C@@H]3CCC4=CC(=O)C=C[C@]4(C)[C@H]3C(=O)C[C@]2(C)[C@@]1(O)C(=O)CO [Meprednisone]
Cholesterol-free [1, 20]: 0.7649
Complete [1, 21]: 1.522
Difference [1, 22]: 0.76
Cholesterol-free media + simvastatin (0.04 μM) [2, 18]: 1.224
Complete Media [2, 19]: 0.9766
Difference [2, 7]: −0.25

Enalapril (maleate)
Cholesterol-free [1, 9]: 1.397
Difference [1, 28]: −0.34
Cholesterol-free media + simvastatin (0.04 μM) [2, 6]: 1.132
Complete Media [2, 5]: 1.317
Difference [2, 12]: 0.19

C=CCOc1ccccc1OCC(O)CNC(C)C (stereo not drawn) [Oxprenolol (hydrochloride)]
Cholesterol-free [1, 20]: 1.177
Complete [1, 21]: 1.262
Difference [1, 22]: 0.09
Cholesterol-free media + simvastatin (0.04 μM) [2, 10]: 0.8718
Complete Media [2, 11]: 0.9135
Difference [2, 12]: 0.04

CCN(c1cc(-c2ccc(CN3CCOCC3)cc2)cc(C(=O)NCc2c(C)cc(C)[nH]c2=O)c1C)C1CCOCC1 [Tazemetostat]
Difference [1, 13]: −0.49
Cholesterol-free [1, 14]: 1.722
Complete [1, 15]: 1.228
Cholesterol-free media + simvastatin (0.04 μM) [2, 6]: 0.9335
Complete Media [2, 5]: 1.59
Difference [2, 12]: 0.66

Iproniazid (phosphate)
Difference [1, 8]: −0.26
Complete ([1]; NCI-H292 cells, complete media): 0.8468
Difference [2, 7]: −0.09

COC(=O)[C@H]1[C@H]2C[C@H]3c4[nH]c5ccccc5c4CCN3C[C@H]2CC[C@@H]1O [Rauwolscine (hydrochloride)]
Cholesterol-free [1, 9]: 1.377
Complete ([1]; NCI-H292 cells, complete media): 0.9629
Difference [1, 28]: −0.41
Cholesterol-free media + simvastatin (0.04 μM) [2, 10]: 0.7455
Complete Media [2, 11]: 0.837
Difference [2, 12]: 0.09

CC(C)NC[C@H](O)COc1ccc(CCOCC2CC2)cc1 [Levobetaxolol (hydrochloride)]
Difference [1, 13]: −0.54
Cholesterol-free [1, 14]: 1.517
Complete [1, 15]: 0.977
Cholesterol-free media + simvastatin (0.04 μM) [2, 23]: 1.004
Complete Media [2, 24]: 0.9581
Difference [2, 25]: −0.05

Cc1ccc(-c2ncc(Cl)cc2-c2ccc(S(C)(=O)=O)cc2)cn1 [Etoricoxib]
Cholesterol-free [1, 20]: 1.045
Complete [1, 21]: 1.321
Difference [1, 22]: 0.28
Cholesterol-free media + simvastatin (0.04 μM) [2, 23]: 1.501
Complete Media [2, 24]: 1.49
Difference [2, 25]: −0.01

Guanabenz (Acetate)
Cholesterol-free [1]: 0.8753
Complete [1]: 0.6073
Difference [1]: −0.27
Cholesterol-free media + simvastatin (0.04 μM) [2]: 1.185
Complete Media [2]: 0.9697
Difference [2]: −0.22

Osimertinib mesylate
Difference [1, 26]: −0.14
Cholesterol-free [1, 4]: 0.3436
Complete [1, 5]: 0.1992
Cholesterol-free media + simvastatin (0.04 μM) [2, 6]: 0.3874
Complete Media [2, 5]: 0.2672
Difference [2, 27]: −0.12

CNC[C@H](O)[C@@H](O)[C@H](O)[C@H](O)CO [Meglumine]
Difference [1, 8]: −0.26
Cholesterol-free [1, 9]: 1.228
Complete ([1]; NCI-H292 cells, complete media): 0.9693
Cholesterol-free media + simvastatin (0.04 μM) [2, 23]: 1.358
Complete Media [2, 24]: 1.305
Difference [2, 25]: −0.05

Cc1ccc(NC(=O)c2ccc(CN3CCN(C)CC3)cc2)cc1Nc1nccc(-c2cccnc2)n1 [Imatinib]
Cholesterol-free [1, 9]: 1.28
Complete ([1]; NCI-H292 cells, complete media): 0.9175
Difference [1, 28]: −0.36
Cholesterol-free media + simvastatin (0.04 μM) [2, 23]: 1.214
Complete Media [2, 24]: 1.199
Difference [2, 25]: −0.01

CCN1CCN(c2cc(-c3ccc(F)cc3)c3c(n2)CCCCCC3)CC1 [Blonanserin]
Difference [1, 8]: −0.06
Cholesterol-free [1, 20]: 1.144
Complete [1, 21]: 1.088
Complete Media [2, 24]: 0.8939
Difference [2, 25]: −0.05

O=C(O)c1ccccc1 [Benzoic acid]
Cholesterol-free [1]: 1.119
Complete [1]: 1.063
Difference [1]: −0.06
Cholesterol-free media + simvastatin (0.04 μM) [2]: 1.277
Difference [2]: −0.11
